From patent US20250025440A1, “COMPOSITIONS AND METHODS FOR MANAGEMENT OF HUMAN PAPILLOMA VIRUS-ASSOCIATED CANCERS” (LOMA LINDA UNIVERSITY, priority 2021, published 2025)
Like-named read-outs stand apart in the source and are kept apart here.

How the values were obtained:
[1] = tested on: HPV- (SCC19, SCC29) and HPV+ (SCC47, SCC104, SCC152) HNSCC cell lines; experiment: Sensitization of HNSCC cell lines to photon radiation; assay type: cell-based; conditions: radiation 0-4Gy followed by inhibitor; DER10
Protocol: The dose enhancement ratio for 10% survival (DER10) was calculated as follows: DER10=(Dose correlated with 10% survival fraction in radiation-treated cells)/(Dose correlated with 10% survival fraction in radiation and inhibitor treated cells).
CCDP, Cetuximab, and GA-OH were evaluated for their ability to sensitize HNSCC cell lines to photon radiation.
Colonies were counted after 14-21 days and normalized to vehicle control and survival analysis was performed.
Sensitization of an additional HPV^+ cell line to radiation by CDDP, Cetuximab and GA-OH was evaluated.

[2] = biological target: T1, full-length HPV E6 binding to human Caspase 8 (Human papillomavirus type 16, UniProt P03126); conditions: for inhibition of E6-caspase 8 binding relative to GA: SAR analogs
T1 construct: made in house; host or cells: E. coli
T1 sequence (P03126 whole entry): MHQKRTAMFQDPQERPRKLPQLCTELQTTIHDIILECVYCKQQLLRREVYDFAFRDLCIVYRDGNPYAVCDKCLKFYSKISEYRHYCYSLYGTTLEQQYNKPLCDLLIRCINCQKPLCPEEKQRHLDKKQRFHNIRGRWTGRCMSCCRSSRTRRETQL
Protocol: Three structurally diverse libraries (Prestwick library, Microsource Spectrum library and an in-house collection at Kansas University; see Table 1) were screened for the ability of compounds to inhibit the binding of full-length HPV E6 to human Caspase 8 using a previously optimized AlphaScreen™ protocol.
The compounds were diluted to a working concentration in DMSO and screened at a single-point final concentration of 10 μM with no replicates. Briefly, 75 nL of each compound was transferred and added to wells of the destination 384-well plate using the Echo dispenser to 4 μL of blocking solution. 4 μL of 800 nM GST-E6 and 4 μL of His6-Caspase 8 were added and pre-incubated at room temperature for 60 minutes. 8 μL of the donor and acceptor bead mixture (final concentration of 20 μg/ml) was then added. The plates were sealed and incubated for 4 hours at room temperature before the plates were read using the Envision™ Multi-Label plate reader (Perkin Elmer Inc.). […] A 10-point serial dilution of these compounds was done for dose-dependency reconfirmation. Dose response inhibition curves were constructed and IC50 calculated using GraphPad Prism using four parameter non-linear regression analysis.
The first counter-screen assay was based using the GST-His6 fusion peptide as the E6-binding partner instead of GST-E6-His6-Caspase 8. Hit candidate compounds from the primary screen were prepared using a 6-point serial dilution. Using an Echo dispenser, compounds were transferred to plates containing 4 μL of blocking buffer. 8 μL of 5 nM GST-His6 peptide substrate was then added. The mixture was pre-incubated at room temperature for 60 minutes. Glutathione donor and nickel chelate acceptor beads (final concentration 20 μg/mL) were added and incubated for another 60 minutes at room temperature. Dose-dependency of the compounds using GST-E6-His6-Caspase 8 was performed in parallel using the same protocol as in the primary screen. The signals were then read using the Envision™ plate reader.
(§1) Using the SciFinder and Zinc15 databases, several gambogic acid structural analogs were identified and selected. The 8 analogs were obtained as follow: gambogenic amide (Enzo Life Sciences), gambogenic acid (Selleckchem), morellic acid (Aobious), 30-hydroxy gambogic acid (Quality Phytochemicals, LLC), acetyl gambogic acid (Microsource), and gambogin, neogambogic acid and isomorellinol (MolPort Natural Products). Additional gambogic acid was purchased from Tocris. The interactions of the analogues with E6-caspase 8 was tested using AlphaScreen™ technology using the same protocol as with the primary screen, and were compared to the parent compound. The effect on cell viability was also similarly done in HPV^+ and HPV^− cell lines via the MTT assay (see below) and potency was determined using GraphPad IC50 curve fitting.

[3] = tested on: SCC104 (HPV+ HNSCC cell line); experiment: MTT cell viability of gambogic acid analogs; assay type: cell-based; conditions: for rank among highest IC50s relative to the parent compound: SCC104, MTT
Protocol: Next, the analogs were evaluated for functional activity using the HPV^+ HNSCC cell line, SCC104, in the MTT assay as described previously to determine whether similar findings would be observed as in the in vitro AlphaScreen™ analysis. With one exception, the patterns were similar to the AlphaScreen™ data, but the differences were relatively more pronounced in the cell-based screen (FIG. 6B). […] Based on these findings, 30-hydroxygambogic acid (GA-OH) was selected as a candidate for more extensive functional studies.
as §1
(§2) All working concentrations were diluted in PBS to the desired concentration before use. To test the effect of gambogic acid and/or its derivatives on cell viability, all cell lines were seeded at 2×10^4 per well in 96-well plates and allowed to adhere overnight. Various concentrations of the analogues were added and the cells incubated at 37° C. for 24 hr. Viability was then measured using the MTT assay, performed as described previously. All experiments were repeated at least three times (three biological replicates, carried out on different days). Data presented are from a representative experiment. Cell viability and potency were assessed from % inhibition relative to the vehicle control, and IC50 dose curves were generated using GraphPad Prism.

[4] = biological target: T2, E6 binding to E6AP (GST-E6 and His6-E6AP) (Human papillomavirus type 16, UniProt P03126); experiment: AlphaScreen E6-E6AP binding (cross-validation); conditions: head to head comparison gambogic acid vs myricetin; read-out: IC50 against E6-E6AP
T2 construct: made in house; host or cells: E. coli (stated for GST-E6 only)
T2 sequence (P03126 whole entry): as above
Protocol: Its activity was then cross-validated by performing additional AlphaScreening™ tests using GST-E6 and His6-E6AP as substrates. […] The activity of these two inhibitors against E6-Caspase 8 binding were evaluated in parallel for a head to head comparison.
The selected compound(s) were then cross-validated with a related but different primary screen assay. Specifically, the caspase 8 used in the primary screen was replaced with E6AP and the inhibitory activity was evaluated against E6 binding to E6AP (E6-E6AP) using the same steps as in the AlphaScreen™ protocol described above.

[5] = toxicities to organs only at high concentrations; cited from earlier work
[6] = tested on: HPV+ (SCC47, SCC090, SCC104, SCC152) and HPV- (SCC19, SCC29, SCC49, SCC84) HNSCC cell lines; experiment: MTT cell viability, HNSCC panel; assay type: cell-based
Protocol: While SAR studies using the SCC104 cell line provided evidence of the activity of the analogs, further studies were conducted to assess not just the potency, but also the selectivity. As a step towards that goal, the efficacy of GA-OH was evaluated in a panel containing both HPV^+ and HPV^− HNSCC cell lines using MTT cell viability assays. Four HPV^+ cell lines (SCC47, SCC090, SCC104, SCC152) and four HPV^− cell lines (SCC19, SCC29, SCC49, SCC84) were utilized. GA-OH behaved dose dependently in cell lines both with or without HPV. […] FIGS. 7A-7C are graphical representations of the sensitivity of HPV^+ cell lines and HPV^− cell lines to GA-OH-mediated growth inhibition. FIG. 7A is a graphical representation of the cell growth inhibition of HNSCC HPV^+ and HPV^− cell lines by GA-OH (+ and closed shapes represent HPV^+ cell lines and − and open shapes the HPV^− cell lines). […] These cells were good controls, as HPV is an established causative agent in CC carcinogenesis. Two HPV^+ cell lines, SiHa and CaSki were selected as the positive controls and the Saos-2 cell line was used as an HPV-negative control. […] FIG. 7B is a graphical representation of the cell growth inhibition of cervical cancer HPV^+ and HPV^− cell lines by GA-OH. HPV^+ cell lines display higher sensitivity than do HPV^− cell lines as shown by the leftwards shift of the HPV^+ curves (SCC47, 90, 104, 152 in FIG. 7A and SiHa and CaSki in FIG. 7B).
as §2, with “All experiments were repeated at least three times (three biological replicates, carried out on different days). Data presented are from a representative experiment.” left out

## [NH2][Pt]([NH2])([Cl])[Cl] [CDDP, cisplatin, reference compound]
[1]
  sensitization to photon radiation: greatest sensitization

## CC(C)=CCc1c2c(c(O)c3c1O[C@]14C(=C[C@@H]5C[C@H]1C(C)(C)O[C@@]4(C/C=C(/C)C(=O)O)C5=O)C3=O)C=CC(C)(C)O2 [analog #2, morellic acid]
[2]
  inhibition of E6-caspase 8 binding relative to GA: did not significantly affect the activity

## CC(C)=CCC/C(C)=C/Cc1c(O)c(CC=C(C)C)c2c(c1O)C(=O)C1=C[C@@H]3C[C@H]4C(C)(C)O[C@@](C/C=C(/C)C(=O)O)(C3=O)[C@@]14O2 [analog #3, gambogenic acid]
[3]
  rank among highest IC50s relative to the parent compound: third

## CC(C)=CCC[C@]1(C)C=Cc2c(O)c3c(c(CC=C(C)C)c2O1)O[C@]12C(=C[C@@H]4CC1C(C)(C)O[C@@]2(C/C=C(/C)C(N)=O)C4=O)C3=O [analog #4, gambogic amide]
[2]
  inhibition of E6-caspase 8 binding relative to GA: did not significantly affect the activity

## CC(C)=CCCC1(C)CC(O)c2c(O)c3c(c(CC=C(C)C)c2O1)OC12C(=CC4CC1C(C)(C)OC2(C/C=C(\C)C(=O)O)C4=O)C3=O (stereo not shown) [analog #5, neo-gambogic acid]
[3]
  rank among highest IC50s relative to the parent compound: fourth

## CC(C)=CCCC1(C)C=Cc2c(O)c3c(c(CC=C(C)C)c2O1)O[C@]12C(=CC4C[C@H]1C(C)(C)OC2(CC=C(C)C)C4=O)C3=O (stereo partly shown) [analog #6, gambogin]
[3]
  rank among highest IC50s relative to the parent compound: first

## CC(C)=CCc1c2c(c(O)c3c1OC14C(=CC5CC1C(C)(C)OC4(C/C=C(\C)CO)C5=O)C3=O)C=CC(C)(C)O2 (stereo not shown) [analog #7, iso morellinol]
[2]
  inhibition of E6-caspase 8 binding relative to GA: did not significantly affect the activity

## CC(=O)Oc1c2c(c(CC=C(C)C)c3c1C(=O)C1=C[C@@H]4CC5C(C)(C)OC(C/C=C(\C)C(=O)O)(C4=O)[C@@]15O3)OC(C)(CCC=C(C)C)C=C2 (stereo partly shown) [analog #8, acetyl iso-gambogic acid]
[3]; SCC104, 24 hr
  potency in MTT assay: diminished activity
[2]
  inhibition of E6-caspase 8 binding relative to GA: did not significantly affect the activity

## CC(C)=CCC[C@]1(C)C=Cc2c(O)c3c(c(CC=C(C)C)c2O1)O[C@]12C(=C[C@@H]4C[C@H]1C(C)(C)O[C@@]2(C/C=C(/C)C(=O)O)C4=O)C3=O [gambogic acid]
[4]
  IC50: 1.7 µM
[5]
  tolerability in animal studies: relatively tolerable
[2]; 11 compounds that passed counter-screening, read-out: IC50 (μM) against E6-Caspase 8 binding
  IC50: 2 µM
[2]; head to head comparison gambogic acid vs myricetin, read-out: IC50 against E6-Caspase 8
  IC50: 1.9 µM
[6]
  potency and selectivity for HPV+ versus HPV- cells: significantly more sensitive

## O=c1c(O)c(-c2cc(O)c(O)c(O)c2)oc2cc(O)cc(O)c12 [myricetin, reference compound]
[4]
  IC50: 5.6 µM
[2]; read-out: IC50 against E6-Caspase 8
  IC50: 4.6 µM
